Test results from patent US20240300913A1, “FLAVONE DERIVATIVE AND USE THEREOF FOR IMPROVING PULMONARY FIBROSIS” (A-CHEMBIO CO., LTD, priority 2023, published 2024).

Assays:
[1] = system: HULEC-5a cells; experiment: Effect upon TGF-β1 treatment in Hulec-5a cells (western blot of protein levels); format: cell-based, human
Experimental: (§1) 1.2×10^6 Hulec-5a cells, derived from pulmonary vessels, were suspended in a medium, dispensed into a 100-mm plate, and incubated for 24 hours. After 24 hours of incubation, each plate was treated with TGF-β1 (10 ng/ml) alone or in combination with novel flavone derivative I at varying concentrations or a predetermined concentration and/or nintedanib (NIDB), a therapeutic drug for idiopathic pulmonary fibrosis and interstitial lung disease. After 3, 24, and 48 hours of incubation, the cells were lysed with RIPA lysis buffer ([50 mM Tris]-Cl (pH, 7.4), 1% NP-40, 150 mM NaCl, 1 mM EDTA, and 1 mM phenylmethylsulfonyl fluoride (PMSF)) containing MG-132 (10 μM, proteasome inhibitor, protect the HIF-1α subunit from proteasome degradation). Next, only the supernatant was collected by centrifugation (at 13,000 rpm for 7 minutes) at 4° C., and the proteins were separated by SDS-polyacrylamide gel electrophoresis (SDS-PAGE). The separated proteins were transferred to a polyvinylidene difluoride membrane (PVDF membrane), reacted in 5% nonfat dry milk for 2 hours, and then reacted with primary antibodies at 4° C. overnight. After overnight, the proteins further reacted with secondary antibodies corresponding to the respective primary antibodies. Then, the protein band was examined, according to the manufacturer's protocol, using an ECL kit.
The effect of novel flavone derivative II upon TGF-β1 treatment in Hulec-5a cells was evaluated in the same manner as in Example 1 above.
The effect of novel flavone derivative III upon TGF-β1 treatment in Hulec-5a cells was evaluated in the same manner as in Example 1 above.

[2] = system: A549 cells; experiment: Effect upon EGF treatment in A549 cells (western blot of protein levels); format: cell-based; conditions: 1 hour
Experimental: A549 cells, derived from lung cancer, were incubated at different cell numbers depending on the sample treatment time. 4.5×10^5 cells (30 minutes to 12 hours), 4.0×10^5 cells (24 hours), and 3.5×10^5 cells (48 hours) were suspended in the respective media, dispensed into a 60-mm plate, and incubated for 24 hours. After 24 hours, each plate was treated with EGF (2 ng/ml) alone or in combination with novel flavone derivative I at varying concentrations or a predetermined concentration. After a predetermined period (30 minutes to 48 hours) of incubation, the cells were lysed with RIPA lysis buffer ([50 mM Tris]-Cl (pH, 7.4), 1% NP-40, 150 mM NaCl, 1 mM EDTA, and 1 mM, phenylmethylsulfonyl fluoride (PMSF)) containing MG-132 (10 μM). Next, only the supernatant was collected by centrifugation (at 14,000 rpm for 10 minutes) at 4° C., and the proteins were separated by SDS-polyacrylamide gel electrophoresis (SDS-PAGE). […]
FIGS. 11 and 12 show the results thereof. […] Thus, the degree to which pulmonary fibrosis-related factors, whose expression levels were increased in A549 cells by EGF treatment, were inhibited by the treatment with novel flavone derivative I was evaluated.
The effect of novel flavone derivative II upon EGF treatment in A549 cells was evaluated in the same manner as in Example 1 above.

[3] = system: A549 cells; experiment: MTT cytotoxicity evaluation in A549 cells; format: cell-based; conditions: for cell viability: compared to untreated control
Experimental: To confirm the effect of novel flavone derivative I on cell viability, A549 cells, derived from lung cancer, were used to examine cell viability with MTT [3-(4,5-dimethylthiazol-2-yl)-2,5-diphenyltetrazolium bromide]. After being suspended in a medium, A549 cells were dispensed into a 96-well plate and incubated for 24 hours. After 24 hours, 200 μL of a medium containing 0 to 20 μM BGC was added to each well of the plate and incubated for 24 or 48 hours. After incubation, MTT was diluted (0.5 mg/ml) in phosphate-buffered saline (PBS). Then, 20 μL of the diluted MTT was dispensed into each well, and incubation was performed in a CO2 incubator for 4 hours. After 4 hours, the MTT solution was removed, and 200 μL of dimethyl sulfoxide (DMSO) was dispensed into each well to dissolve the formazan precipitate for 5 minutes. Next, the absorbance was measured at 595 nm.
Cytotoxicity tests of novel flavone derivative II (Achem II) on A549 cells, HULEC-5a cells, and HLF cells were performed in the same manner as in Example 1 above, using the MTT assay. The results thereof are shown in FIGS. 17 to 19 as cell viability (%) after 24, 48, and 72 hours compared to that of the control group, the untreated sample group.
Cytotoxicity tests of novel flavone derivative III (Achem III) on A549 cells, HULEC-5a cells, and HLF cells were performed in the same manner as in Example 1 above, using the MTT assay. The results thereof are shown in FIGS. 27 to 29 as cell viability (%) after 24, 48, and 72 hours compared to that of the control group, the untreated sample group.

[4] = system: HLF cells; experiment: Effect upon TGF-β1 treatment in HLF cells (western blot of protein levels); format: cell-based, human
Experimental: as §1, with “After suspending 5×10^6 human lung fibroblast (HLF) cells in a medium, […]” for “1.2×10^6”, “[…]” for “in a”, “hours. […]” for “hours.”, “24” for “24 hours of incubation, each plate was treated with TGF-β1 (10 ng/ml) alone or in combination with novel flavone derivative I at varying concentrations or a predetermined concentration and/or nintedanib (NIDB), a therapeutic drug for idiopathic pulmonary fibrosis and interstitial lung disease. After 3, 24,”
The effect of novel flavone derivative II upon TGF-β1 treatment in HLF cells was evaluated in the same manner as in Example 1 above.
The effect of novel flavone derivative III upon TGF-β1 treatment in HLF cells was evaluated in the same manner as in Example 1 above.

| Structure (SMILES) | levels of fibrosis-related factors (Fibronectin, α-SMA, NOX1, NOX2, and NOX4), increased by TGF-β1 treatment ([1]; HULEC-5a cells, 10 ng/mL TGF-β1 and/or 5 μM compound, 3, 24, and 48 hours, FIG. 9) | levels of fibrosis-related factors (p-EGFR, EGFR, p-AKT, HIF-1α, and NOX2), increased by EGF treatment ([2]; 2 ng/mL EGF and compound at 1, 3, and 5 or 2 μM, FIGS. 11 and 12) | cytotoxicity ([3]; treatment concentration of 5 μM, incubated for 24 hours, MTT) | cell viability ([3]; treatment concentration of 5 μM, incubated for 48 hours) | levels of fibrosis-related factors (fibronectin, COL4, α-SMA, and HIF-1α), increased by TGF-β1 treatment ([4]; 5 ng/mL TGF-β1 and 1 and 3 μM compound, 24 hours, FIG. 10) | levels of fibronectin, COL4, α-SMA, and HIF-1α, increased by TGF-β1 treatment ([1]; Hulec-5a cells, TGF-β1 treatment, FIG. 22) | level of NOX2, a fibrosis-related factor increased by EGF treatment ([2]; 2 ng/mL EGF and compound, FIG. 24) | cell viability ([3]; all treatment concentrations, incubated for 24 and 48 hours) [%] | cell viability ([3]; concentrations of 3 μM or higher, incubated for 72 hours) [%] | levels of fibronectin, α-SMA, HIF-1α, and COL1, increased by TGF-β1 treatment ([4]; TGF-β1 treatment, FIG. 23) |
| --- | --- | --- | --- | --- | --- | --- | --- | --- | --- | --- |
| COc1ccc(-c2c(-c3ccc(O)c(O)c3)oc3cc(OC)c(OC)cc3c2=O)cc1 [novel flavone derivative I, 2-(3,4-dihydroxyphenyl)-6,7-dimethoxy-3-(4-methoxyphenyl)-4H-chromen-4-one] | decreased | decreased | No cytotoxicity was observed | about 80% | decreased | – | – | – | – | – |
| COc1ccc(-c2c(-c3ccc(O)c(OC)c3)oc3cc(OC)c(OC)cc3c2=O)cc1 [novel flavone derivative II, 2-(4-hydroxy-3-methoxyphenyl)-6,7-dimethoxy-3-(4-methoxyphenyl)-4H-chromen-4-one] | – | – | – | – | – | decreased | decreased | ≥ 80 | ≤ 80 | decreased |
